Measured values from PubChem BioAssay (NCI).
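96-well plates; 48 h exposure; 5 concentrations. Endpoints by linear interpolation between flanking doses. Not reached: highest tested concentration assigned. GI50 is the concentration that inhibits growth by half. TGI: total growth inhibition.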

Tests used:
Experiment in all cases: inhibition of tumour cell growth, NCI panel, 48 h; in the data active = GI50 below about 0.43 µM; inactive = the rest
SF-295 CNS = system: SF-295 CNS
HCC-2998 colon = system: HCC-2998 colon
HL-60(TB) leukemia = system: HL-60(TB) leukemia
KM12 colon = system: KM12 colon
BT-549 breast = system: BT-549 breast
SNB-75 CNS = system: SNB-75 CNS
TK-10 renal = system: TK-10 renal
SK-MEL-5 melanoma = system: SK-MEL-5 melanoma
K-562 leukemia = system: K-562 leukemia
SW-620 colon = system: SW-620 colon
RXF 393 renal = system: RXF 393 renal
CAKI-1 renal = system: CAKI-1 renal
SNB-19 CNS = system: SNB-19 CNS
MALME-3M melanoma = system: MALME-3M melanoma
DU-145 prostate = system: DU-145 prostate
HCT-15 colon = system: HCT-15 colon
HOP-62 NSCLC = system: HOP-62 NSCLC
HCT-116 colon = system: HCT-116 colon
MDA-MB-231 breast = system: MDA-MB-231 breast
NCI-H522 lung = system: NCI-H522 lung
T-47D breast = system: T-47D breast
NCI/ADR-RES ovarian = system: NCI/ADR-RES ovarian
UACC-62 melanoma = system: UACC-62 melanoma
ACHN renal = system: ACHN renal
U251 CNS = system: U251 CNS
OVCAR-8 ovarian = system: OVCAR-8 ovarian
NCI-H23 lung = system: NCI-H23 lung
LOX IMVI melanoma = system: LOX IMVI melanoma
SK-MEL-2 melanoma = system: SK-MEL-2 melanoma
NCI-H226 lung = system: NCI-H226 lung
IGROV1 ovarian = system: IGROV1 ovarian
SK-MEL-28 melanoma = system: SK-MEL-28 melanoma
OVCAR-3 ovarian = system: OVCAR-3 ovarian
MDA-MB-435 = system: MDA-MB-435
HS 578T breast = system: HS 578T breast
MCF7 breast = system: MCF7 breast
SF-539 CNS = system: SF-539 CNS
HOP-92 NSCLC = system: HOP-92 NSCLC
OVCAR-4 ovarian = system: OVCAR-4 ovarian
A498 renal = system: A498 renal
UO-31 renal = system: UO-31 renal
COLO 205 colon = system: COLO 205 colon
SN12C renal = system: SN12C renal
OVCAR-5 ovarian = system: OVCAR-5 ovarian
PC-3 prostate = system: PC-3 prostate
SF-268 CNS = system: SF-268 CNS
SR leukemia = system: SR leukemia
UACC-257 melanoma = system: UACC-257 melanoma
HT29 colon = system: HT29 colon
SK-OV-3 ovarian = system: SK-OV-3 ovarian
MOLT-4 leukemia = system: MOLT-4 leukemia
A549 NSCLC = system: A549 NSCLC
CCRF-CEM leukemia = system: CCRF-CEM leukemia
RPMI-8226 leukemia = system: RPMI-8226 leukemia
786-0 renal = system: 786-0 renal
NCI-H460 lung = system: NCI-H460 lung
EKVX NSCLC = system: EKVX NSCLC
M14 melanoma = system: M14 melanoma

COc1cc(C(=O)Nc2ccc(-c3nc4ccccc4[nH]3)cc2)cc(OC)c1OC
26.3 µM: TGI (OVCAR-5 ovarian)
25.5 µM: TGI (SF-295 CNS) | TGI (SN12C renal)
36.7 µM: TGI (NCI-H226 lung)
31.5 µM: TGI (IGROV1 ovarian)
31.6 µM: TGI (MALME-3M melanoma)
27.8 µM: TGI (A549 NSCLC)
39.3 µM: TGI (CCRF-CEM leukemia)
45.4 µM: TGI (MOLT-4 leukemia)
30.6 µM: TGI (MCF7 breast) | TGI (SK-OV-3 ovarian) | TGI (RPMI-8226 leukemia)
23.1 µM: TGI (ACHN renal)
28.6 µM: TGI (SK-MEL-28 melanoma) | TGI (786-0 renal)
39.1 µM: TGI (COLO 205 colon)
19.3 µM: TGI (HS 578T breast)
56.4 µM: TGI (HL-60(TB) leukemia)
22.7 µM: TGI (NCI-H460 lung)
40.9 µM: TGI (SR leukemia)
37.4 µM: TGI (SF-268 CNS)
31 µM: TGI (MDA-MB-435)
30.9 µM: TGI (RXF 393 renal) | TGI (LOX IMVI melanoma)
23.9 µM: TGI (HOP-62 NSCLC)
42.8 µM: TGI (SW-620 colon)
29.2 µM: TGI (BT-549 breast)
24.6 µM: TGI (SNB-75 CNS)
28.5 µM: TGI (OVCAR-8 ovarian)
36.9 µM: TGI (OVCAR-4 ovarian)
24.2 µM: TGI (HOP-92 NSCLC)
32.5 µM: TGI (KM12 colon)
29.1 µM: TGI (SNB-19 CNS)
29.5 µM: TGI (SK-MEL-2 melanoma)
inactive: GI50 (SF-295 CNS) 10.7 µM | GI50 (HCC-2998 colon) 14.6 µM | GI50 (HL-60(TB) leukemia) 17.8 µM | GI50 (KM12 colon) 9.22 µM | GI50 (BT-549 breast) 12.7 µM | GI50 (SNB-75 CNS) 10.9 µM | GI50 (TK-10 renal) 15.1 µM | GI50 (SK-MEL-5 melanoma) 11.5 µM | GI50 (K-562 leukemia) 7.39 µM | GI50 (SW-620 colon) 16.9 µM | GI50 (RXF 393 renal) 10.7 µM | GI50 (CAKI-1 renal) 10.9 µM | GI50 (SNB-19 CNS) 11.6 µM | GI50 (MALME-3M melanoma) 12 µM | GI50 (DU-145 prostate) 11.2 µM | GI50 (HCT-15 colon) 6.61 µM | GI50 (HOP-62 NSCLC) 6.44 µM | GI50 (HCT-116 colon) 10.7 µM | GI50 (MDA-MB-231 breast) 9.38 µM | GI50 (NCI-H522 lung) 7.75 µM | GI50 (T-47D breast) 5.39 µM | GI50 (NCI/ADR-RES ovarian) 13 µM | GI50 (UACC-62 melanoma) 9.89 µM | GI50 (ACHN renal) 8.23 µM | GI50 (U251 CNS) 10.2 µM | GI50 (OVCAR-8 ovarian) 7.53 µM | GI50 (NCI-H23 lung) 11.9 µM | GI50 (LOX IMVI melanoma) 11.2 µM | GI50 (SK-MEL-2 melanoma) 14.5 µM | GI50 (NCI-H226 lung) 15.3 µM | GI50 (IGROV1 ovarian) 14.1 µM | GI50 (SK-MEL-28 melanoma) 13.7 µM | GI50 (OVCAR-3 ovarian) 12.4 µM | GI50 (MDA-MB-435) 13.5 µM | GI50 (HS 578T breast) 3.54 µM | GI50 (MCF7 breast) 11.2 µM | GI50 (SF-539 CNS) 11.6 µM | GI50 (HOP-92 NSCLC) 6.41 µM | GI50 (OVCAR-4 ovarian) 11.8 µM | GI50 (A498 renal) 7.07 µM | GI50 (UO-31 renal) 3.92 µM | GI50 (COLO 205 colon) 15.3 µM | GI50 (SN12C renal) 10.3 µM | GI50 (OVCAR-5 ovarian) 11.7 µM | GI50 (PC-3 prostate) 13.6 µM | GI50 (SF-268 CNS) 14.2 µM | GI50 (SR leukemia) 6.92 µM | GI50 (UACC-257 melanoma) 17.8 µM | GI50 (HT29 colon) 5.95 µM | GI50 (SK-OV-3 ovarian) 16.5 µM | GI50 (MOLT-4 leukemia) 9.82 µM | GI50 (A549 NSCLC) 11.2 µM | GI50 (CCRF-CEM leukemia) 7.9 µM | GI50 (RPMI-8226 leukemia) 6.35 µM | GI50 (786-0 renal) 11.8 µM | GI50 (NCI-H460 lung) 5.74 µM
25.4 µM: TGI (A498 renal)
25.9 µM: TGI (SK-MEL-5 melanoma)
34 µM: TGI (PC-3 prostate)
24.4 µM: TGI (HCT-15 colon) | TGI (UACC-62 melanoma)
73.4 µM: TGI (NCI/ADR-RES ovarian)
27.4 µM: TGI (K-562 leukemia)
29.9 µM: TGI (NCI-H522 lung)
16.1 µM: TGI (UO-31 renal)
29.3 µM: TGI (TK-10 renal)
38.9 µM: TGI (UACC-257 melanoma)
27.9 µM: TGI (OVCAR-3 ovarian) | TGI (SF-539 CNS)
23.4 µM: TGI (T-47D breast) | TGI (U251 CNS)
36.6 µM: TGI (HCC-2998 colon)
34.6 µM: TGI (NCI-H23 lung)
25.3 µM: TGI (CAKI-1 renal) | TGI (DU-145 prostate) | TGI (HCT-116 colon)
24 µM: TGI (MDA-MB-231 breast)
19.6 µM: TGI (HT29 colon)

O=C(NCCNC1=CC(=O)c2nc3ccccc3c3ccnc1c23)c1cnccn1
50.9 µM: TGI (CAKI-1 renal)
63.2 µM: TGI (MDA-MB-435)
37.2 µM: TGI (TK-10 renal)
> 100 µM: TGI (SF-295 CNS) | TGI (HCC-2998 colon) | TGI (HL-60(TB) leukemia) | TGI (BT-549 breast) | TGI (SNB-75 CNS) | TGI (EKVX NSCLC) | TGI (SK-MEL-5 melanoma) | TGI (K-562 leukemia) | TGI (SW-620 colon) | TGI (SNB-19 CNS) | TGI (MALME-3M melanoma) | TGI (DU-145 prostate) | TGI (HCT-15 colon) | TGI (HOP-62 NSCLC) | TGI (HCT-116 colon) | TGI (MDA-MB-231 breast) | TGI (NCI-H522 lung) | TGI (T-47D breast) | TGI (NCI/ADR-RES ovarian) | TGI (UACC-62 melanoma) | TGI (ACHN renal) | TGI (U251 CNS) | TGI (M14 melanoma) | TGI (OVCAR-8 ovarian) | TGI (NCI-H23 lung) | TGI (LOX IMVI melanoma) | TGI (SK-MEL-2 melanoma) | TGI (NCI-H226 lung) | TGI (IGROV1 ovarian) | TGI (SK-MEL-28 melanoma) | TGI (HS 578T breast) | TGI (MCF7 breast) | TGI (SF-539 CNS) | TGI (HOP-92 NSCLC) | TGI (OVCAR-4 ovarian) | TGI (A498 renal) | TGI (UO-31 renal) | TGI (COLO 205 colon) | TGI (SN12C renal) | TGI (OVCAR-5 ovarian) | TGI (PC-3 prostate) | TGI (SF-268 CNS) | TGI (SR leukemia) | TGI (UACC-257 melanoma) | TGI (HT29 colon) | TGI (SK-OV-3 ovarian) | TGI (MOLT-4 leukemia) | TGI (A549 NSCLC) | TGI (CCRF-CEM leukemia) | TGI (786-0 renal) | TGI (NCI-H460 lung)
63.4 µM: TGI (KM12 colon)
24.3 µM: TGI (RPMI-8226 leukemia)
inactive: GI50 (SF-295 CNS) 18.9 µM | GI50 (HCC-2998 colon) 27.6 µM | GI50 (HL-60(TB) leukemia) 42.8 µM | GI50 (KM12 colon) 11.2 µM | GI50 (BT-549 breast) 44.8 µM | GI50 (SNB-75 CNS) > 100 µM | GI50 (TK-10 renal) 10.3 µM | GI50 (EKVX NSCLC) > 100 µM | GI50 (SK-MEL-5 melanoma) 54.7 µM | GI50 (K-562 leukemia) 33.6 µM | GI50 (SW-620 colon) 24.2 µM | GI50 (CAKI-1 renal) 15.8 µM | GI50 (SNB-19 CNS) 42.2 µM | GI50 (MALME-3M melanoma) 18.2 µM | GI50 (DU-145 prostate) 43.8 µM | GI50 (HCT-15 colon) 38 µM | GI50 (HOP-62 NSCLC) 18.9 µM | GI50 (HCT-116 colon) 19.8 µM | GI50 (MDA-MB-231 breast) 58.5 µM | GI50 (NCI-H522 lung) 44 µM | GI50 (T-47D breast) 44.7 µM | GI50 (NCI/ADR-RES ovarian) 96.6 µM | GI50 (UACC-62 melanoma) 73.7 µM | GI50 (ACHN renal) 32.4 µM | GI50 (U251 CNS) 31 µM | GI50 (M14 melanoma) 40.8 µM | GI50 (OVCAR-8 ovarian) 24.3 µM | GI50 (NCI-H23 lung) 46.4 µM | GI50 (LOX IMVI melanoma) 33.9 µM | GI50 (SK-MEL-2 melanoma) 60.5 µM | GI50 (NCI-H226 lung) 90.7 µM | GI50 (IGROV1 ovarian) 45.2 µM | GI50 (SK-MEL-28 melanoma) 40.9 µM | GI50 (OVCAR-3 ovarian) 2.42 µM | GI50 (MDA-MB-435) 14.5 µM | GI50 (HS 578T breast) 32.7 µM | GI50 (MCF7 breast) 21.4 µM | GI50 (SF-539 CNS) 51.5 µM | GI50 (HOP-92 NSCLC) 16.1 µM | GI50 (OVCAR-4 ovarian) 83.7 µM | GI50 (A498 renal) > 100 µM | GI50 (UO-31 renal) 62.4 µM | GI50 (COLO 205 colon) 52 µM | GI50 (SN12C renal) 49.5 µM | GI50 (OVCAR-5 ovarian) > 100 µM | GI50 (PC-3 prostate) 13.1 µM | GI50 (SF-268 CNS) 31 µM | GI50 (SR leukemia) 9.26 µM | GI50 (UACC-257 melanoma) 49.3 µM | GI50 (HT29 colon) 33 µM | GI50 (SK-OV-3 ovarian) > 100 µM | GI50 (MOLT-4 leukemia) 35.7 µM | GI50 (A549 NSCLC) 36.3 µM | GI50 (CCRF-CEM leukemia) 1.94 µM | GI50 (RPMI-8226 leukemia) 1.1 µM | GI50 (786-0 renal) 36.7 µM | GI50 (NCI-H460 lung) 18.4 µM
19.1 µM: TGI (OVCAR-3 ovarian)
